Test results from the supplement of paper PMC10307832.

Legend:
Experiment in all cases: relative viability (nuclei count vs DMSO), 5 days (fraction); higher = more cells survive
[1] = compound: C1=CC=C(C(=C1)C2=CC=C(C=C2)C3=CSC4=C3C(=C(C(=O)N4)C#N)O)O + CS(=O)(=O)N1CCN(Cc2cc3nc(-c4cccc5[nH]ncc45)nc(N4CCOCC4)c3s2)CC1 [Pictilisib] (partner 1 µM)
Method in brief: (§1)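 The day after seeding in 1536-well plates, lung cancer cell lines were treated by pin tool with a single drug, or with a fixed anchor-drug dose together with five library-drug doses (not always all listed) in √10 steps. After 5 days, a combined fix-and-stain solution (final 0.05% Triton X-100, 1% formaldehyde, 1 ug/ml Hoechst) was added. Nuclei counted on 4× images gave relative viability as treated counts over vehicle counts, reported as the median of duplicate plates.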

[2] = compound: C1=CC=C(C(=C1)C2=CC=C(C=C2)C3=CSC4=C3C(=C(C(=O)N4)C#N)O)O + O=C(c1cc(Cc2n[nH]c(=O)c3ccccc23)ccc1F)N1CCN(C(=O)C2CC2)CC1 [Olaparib] (partner 8 µM)
Method in brief: as §1

Ricolinostat + Alpelisib = compound: O=C(CCCCCCNC(=O)c1cnc(N(c2ccccc2)c2ccccc2)nc1)NO [Ricolinostat] + Cc1nc(NC(=O)N2CCC[C@H]2C(N)=O)sc1-c1ccnc(C(C)(C)C(F)(F)F)c1 [Alpelisib] (partner 2 µM)
Method in brief: as §1

[3] = compound: C1=CC=C(C(=C1)C2=CC=C(C=C2)C3=CSC4=C3C(=C(C(=O)N4)C#N)O)O + CC(=O)c1c(C)c2cnc(Nc3ccc(N4CCNCC4)cn3)nc2n(C2CCCC2)c1=O [Palbociclib] (partner 0.5 µM)
Method in brief: as §1

[4] = compound: C1=CC=C(C(=C1)C2=CC=C(C=C2)C3=CSC4=C3C(=C(C(=O)N4)C#N)O)O + N=C(N)NC(=N)NCCc1ccccc1 [Phenformin] (partner 250 µM)
Method in brief: as §1

With NCI-H1792 as the cell line, how does the relative viability ([1]; first compound 0.253 µM) read?
The relative viability was 0.275.

And the relative viability ([1]; first compound 0.8 µM)?
The relative viability was 0.266.

And the relative viability ([1]; first compound 2.53 µM)?
The relative viability was 0.19.

What about the relative viability ([1]; first compound 8 µM) of the same cell line?
Its relative viability is 0.18.

And the relative viability ([2]; first compound 0.253 µM)?
Its relative viability is 0.324.

And the relative viability ([2]; first compound 0.8 µM)?
Its relative viability is 0.365.

What about the relative viability ([2]; first compound 2.53 µM) of the same cell line?
Its relative viability is 0.317.

And the relative viability ([2]; first compound 8 µM)?
Its relative viability is 0.389.

What about the relative viability (Ricolinostat + Alpelisib; first compound 0.08 µM) of the same cell line?
The relative viability was 0.55.

And the relative viability (Ricolinostat + Alpelisib; first compound 0.253 µM)?
Its relative viability is 0.661.

And the relative viability (Ricolinostat + Alpelisib; first compound 0.8 µM)?
The relative viability was 0.67.

And the relative viability (Ricolinostat + Alpelisib; first compound 2.53 µM)?
The relative viability was 0.59.

And the relative viability ([3]; first compound 0.253 µM)?
The relative viability was 0.65.

And the relative viability ([3]; first compound 2.53 µM)?
The relative viability was 0.895.

And the relative viability ([3]; first compound 8 µM)?
The relative viability was 0.355.

And the relative viability ([4]; first compound 0.08 µM)?
The relative viability was 0.113.

What about the relative viability ([4]; first compound 0.253 µM) of the same cell line?
Its relative viability is 0.283.

And the relative viability ([4]; first compound 0.8 µM)?
Its relative viability is 0.287.

What about the relative viability ([4]; first compound 2.53 µM) of the same cell line?
Its relative viability is 0.36.

What about the relative viability ([4]; first compound 8 µM) of the same cell line?
Its relative viability is 0.268.
